Measured values from patent publication US20150284331A1 (priority 2012, published 2015).

How the values were obtained:
butyrylcholinesterase = molecular target: T1, butyrylcholinesterase (Rattus norvegicus, UniProt Q9JKC1); experiment: inhibition of butyrylcholinesterase (rat serum); assay type: biochemical; conditions: rat serum enzyme; final concentration 4×10−5 mol/L
T1 construct: Butyrylcholinesterase: rat serum; from tissue; host or cells: rat serum
Procedure: (§1) Sample processing: All samples were formulated as 10-2 mol/L solution by using 100% DMSO. 10-2 mol/L solution was used in microdetermination. 1 μL was taken to use in single tube experiment.
(§2) Solvent control: 0.4% DMSO was used in microdetermination. The inhibition ratio of the sample was obtained wherein the effect of solvent was deducted.
Butyrylcholinesterase: rat serum

KM mice = experiment: acute toxicities of compounds on mice; assay type: in vivo; conditions: 100 mg/kg oral
Procedure: Sample processing: When getting samples, they were undissolved. […] The samples were suspensions. Experimental animals: KM mice, 22-29 g, half male and half female.
Experimental method: Mice were randomly divided into groups. 100 mg/kg of test compounds DC19 and DC20 were administered orally, respectively.

acetylcholinesterase = molecular target: T2, acetylcholinesterase (Rattus norvegicus, UniProt P37136); experiment: biochemical; assay type: biochemical; conditions: rat cortex enzyme; for acetylcholinesterase inhibitory activity inhibition ratio (%): final concentration 4×10−5 mol/L; for IC50: read-out: acetylcholinesterase inhibitory activity IC50 (nmol)
T2 construct: Acetylcholinesterase: rat cortex; from tissue; host or cells: rat cortex
T2 sequence (P37136 32-614): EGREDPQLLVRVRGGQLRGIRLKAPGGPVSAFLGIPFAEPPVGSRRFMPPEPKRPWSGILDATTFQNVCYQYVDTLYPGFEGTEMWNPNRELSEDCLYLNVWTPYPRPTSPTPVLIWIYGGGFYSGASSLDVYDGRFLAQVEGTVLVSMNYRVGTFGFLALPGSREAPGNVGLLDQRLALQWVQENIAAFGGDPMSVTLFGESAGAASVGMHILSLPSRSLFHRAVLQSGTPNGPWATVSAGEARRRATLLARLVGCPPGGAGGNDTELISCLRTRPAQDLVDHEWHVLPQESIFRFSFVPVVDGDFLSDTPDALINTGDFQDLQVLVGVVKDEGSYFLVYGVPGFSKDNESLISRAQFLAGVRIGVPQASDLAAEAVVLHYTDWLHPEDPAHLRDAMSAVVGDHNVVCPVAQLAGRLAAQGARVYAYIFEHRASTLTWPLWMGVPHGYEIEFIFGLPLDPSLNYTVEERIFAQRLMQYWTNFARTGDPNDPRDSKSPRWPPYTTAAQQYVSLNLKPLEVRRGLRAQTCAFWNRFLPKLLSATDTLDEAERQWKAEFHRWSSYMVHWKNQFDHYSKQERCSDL
Procedure: as §1, §2
Acetylcholinesterase: rat cortex

T1 sequence (Q9JKC1 24-597): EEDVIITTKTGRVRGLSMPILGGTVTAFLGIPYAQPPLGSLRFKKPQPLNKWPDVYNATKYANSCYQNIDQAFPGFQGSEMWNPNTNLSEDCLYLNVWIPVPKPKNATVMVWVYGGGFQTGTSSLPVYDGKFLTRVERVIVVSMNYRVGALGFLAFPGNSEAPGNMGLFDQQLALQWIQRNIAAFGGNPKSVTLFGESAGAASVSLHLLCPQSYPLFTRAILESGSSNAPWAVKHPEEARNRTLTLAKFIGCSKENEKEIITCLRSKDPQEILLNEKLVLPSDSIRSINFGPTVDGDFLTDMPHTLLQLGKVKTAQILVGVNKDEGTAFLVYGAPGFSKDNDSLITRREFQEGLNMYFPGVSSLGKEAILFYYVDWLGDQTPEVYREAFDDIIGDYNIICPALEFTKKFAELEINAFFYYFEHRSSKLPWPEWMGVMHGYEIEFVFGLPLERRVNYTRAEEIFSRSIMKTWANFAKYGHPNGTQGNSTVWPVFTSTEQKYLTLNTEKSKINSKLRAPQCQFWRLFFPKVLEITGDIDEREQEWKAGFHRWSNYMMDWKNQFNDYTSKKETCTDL

Row | Structure (SMILES) | butyrylcholinesterase inhibitory activity inhibition ratio (%) (butyrylcholinesterase) | response symptoms (KM mice; female KM mouse) | time of death after administration (KM mice; male KM mouse) | acetylcholinesterase inhibitory activity inhibition ratio (%) (acetylcholinesterase) | IC50 (acetylcholinesterase)
1 | COc1cc2c(cc1OC)C(=O)C(CC1(F)CCN(Cc3ccccc3)CC1)C2 (stereo not drawn) [DC19, 2-((l-benzyl-4-fluoropiperidin-4-yl)methyl)-5,6-dimethoxy-2,3-dihydro-1H-inden-1-one] | 71.58% | 30 min squint | 3 h after administration, death | 82.44% | 0.96 nM
2 | COc1cc2c(cc1OC)C(=O)C(CC1(F)CC3CCC(C1)N3Cc1ccccc1F)C2 (centres unmarked) [DC60, 2-((3-fluoro-8-(2-fluorobenzyl)-8-azabicyclo[3.2.1]octan-3-yl)methyl)-5,6-dimethoxy-2,3-dihydro-1H-inden-1-one] | 64.31% |  |  | 95.13% | 
3 | COc1cc2c(cc1OC)C(=O)C(CC1(F)CC3CCC(C1)N3Cc1cccc(F)c1)C2 (centres unmarked) [DC61, 2-((3-fluoro-8-(3-fluorobenzyl)-8-azabicyclo[3.2.1]octan-3-yl)methyl)-5,6-dimethoxy-2,3-dihydro-1H-inden-1-one] | 61.04% |  |  | 96.75% | 
4 | COc1cc2c(cc1OC)C(=O)C(CC1(F)CC3CCC(C1)N3Cc1c(F)c(F)c(F)c(F)c1F)C2 (centres unmarked) [DC68, 2-((3-fluoro-8-((perfluorophenyl)methyl)-8-azabicyclo[3.2.1]octan-3-yl)methyl)-5,6-dimethoxy-2,3-dihydro-1H-inden-1-one] | 4.0% |  |  | 93.80% | 
5 | COc1cc2c(cc1OC)C(=O)C(CC1(F)CC3CCC(C1)N3Cc1cccc(C)c1)C2 (centres unmarked) [DC69, 2-((3-fluoro-8-(3-methylbenzyl)-8-azabicyclo[3.2.1]octan-3-yl)methyl)-5,6-dimethoxy-2,3-dihydro-1H-inden-1-one] | 58.86% |  |  | 97.49% | 
6 | COc1cc2c(cc1OC)C(=O)C(CC1(F)CC3CCC(C1)N3Cc1cccc(C(F)(F)F)c1)C2 (centres unmarked) [DC70, 2-((3-fluoro-8-(3-(trifluoromethyl)benzyl)-8-azabicyclo[3.2.1]octan-3-yl)methyl)-5,6-dimethoxy-2,3-dihydro-1H-inden-1-one] | 0.09% |  |  | 76.51% | 
7 | COc1cc2c(cc1OC)C(=O)C(CC1(F)CC3CCC(C1)N3Cc1cc(F)cc(F)c1F)C2 (centres unmarked) [DC75, 2-((3-fluoro-8-(2,3,5-trifluorobenzyl)-8-azabicyclo[3.2.1]octan-3-yl)methyl)-5,6-dimethoxy-2,3-dihydro-1H-inden-1-one] | 13.53% |  |  | 72.53% | 
8 | CCOc1cc2c(cc1OCC)C(=O)C(CC1(F)CCN(Cc3ccccc3F)CC1)C2 (centres unmarked) [DC77, 5,6-diethoxy-2-((4-fluoro-1-(2-fluorobenzyl)piperidin-4-yl)methyl)-2,3-dihydro-1H-inden-1-one] | 72.0% |  |  | 97.09% | 0.9 nM
9 | CCCOc1cc2c(cc1OCCC)C(=O)C(CC1(F)CCN(Cc3ccccc3F)CC1)C2 (centres unmarked) [DC78, 2-((4-fluoro-1-(2-fluorobenzyl)piperidin-4-yl)methyl)-5,6-dipropoxy-2,3-dihydro-1H-inden-1-one] | 71.0% |  |  | 95.04% | 0.96 nM
10 | CCOCOc1cc2c(cc1OCOCC)C(=O)C(CC1(F)CCN(Cc3ccccc3F)CC1)C2 (centres unmarked) [DC79, 5,6-bis(ethoxymethoxy)-2-((4-fluoro-1-(2-fluorobenzyl)piperidin-4-yl)methyl)-2,3-dihydro-1H-inden-1-one] | 75.0% |  |  | 93.05% | 1.86 nM
11 | O=C1c2cc(OCC(F)(F)F)c(OCC(F)(F)F)cc2CC1CC1(F)CCN(Cc2ccccc2F)CC1 (centres unmarked) [DC103, 2-((4-fluoro-1-(2-fluorobenzyl)piperidin-4-yl)methyl)-5,6-bis(2,2,2-trifluoroethoxy)-2,3-dihydro-1H-inden-1-one] | 70.0% |  |  | 92.04% | 0.86 nM
12 | O=C1c2cc(OC(F)F)c(OC(F)F)cc2CC1CC1(F)CCN(Cc2ccccc2F)CC1 (centres unmarked) [DC104, 5,6-bis(difluoromethoxy)-2-((4-fluoro-1-(2-fluorobenzyl)piperidin-4-yl)methyl)-2,3-dihydro-1H-inden-1-one] | 71.8% |  |  | 98.02% | 0.76 nM
13 | O=C1c2cc(OCC(F)F)c(OCC(F)F)cc2CC1CC1(F)CCN(Cc2ccccc2F)CC1 (centres unmarked) [DC105, 5,6-bis(2,2-difluoroethoxy)-2-((4-fluoro-1-(2-fluorobenzyl)piperidin-4-yl)methyl)-2,3-dihydro-1H-inden-1-one] | 61.5% |  |  | 98.14% | 0.99 nM
14 | O=C1c2cc(Cl)c(Cl)cc2CC1CC1(F)CCN(Cc2ccccc2F)CC1 (centres unmarked) [DC106, 5,6-dichloro-2-((4-fluoro-1-(2-fluorobenzyl)piperidin-4-yl)methyl)-2,3-dihydro-1H-inden-1-one] | 88.0% |  |  | 70.05% | 500 nM
15 | COC(=O)C1CC(F)(CC2Cc3cc(OC)c(OC)cc3C2=O)CCN1Cc1ccccc1F (centres unmarked) [DC107, methyl 4-((5,6-dimethoxy-1-oxo-2,3-dihydro-1H-inden-2-yl)methyl)-4-fluoro-1-(2-fluorobenzyl)piperidine-2-carboxylate] | 75.6% |  |  | 76.03% | 23 nM
16 | COc1cc2c(cc1OC)C(=O)C(CC1(F)CCN(Cc3ccccc3F)C(C(=O)O)C1)C2 (centres unmarked) [DC108, 4-((5,6-dimethoxy-1-oxo-2,3-dihydro-1H-inden-2-yl)methyl)-4-fluoro-1-(2-fluorobenzyl)piperidine-2-carboxylic acid] | 71.58% |  |  | 82.49% | 9.96 nM
17 | COc1cc2c(cc1OC)C(=O)C(CC1(F)CCN(Cc3ccccc3F)C(C)C1)C2 (centres unmarked) [DC109, 2-((4-fluoro-1-(2-fluorobenzyl)-2-methylpiperidin-4-yl)methyl)-5,6-dimethoxy-2,3-dihydro-1H-inden-1-one] | 76.62% |  |  | 88.44% | 10.9 nM
18 | COc1cc2c(cc1OC)C(=O)C(CC1(F)CCN(CCc3ccccc3)CC1)C2 (centres unmarked) [DC110, 2-((4-fluoro-1-phenethylpiperidin-4-yl)methyl)-5,6-dimethoxy-2,3-dihydro-1H-inden-1-one] | 66.30% |  |  | 88.55% | 12.3 nM
19 | COc1cc2c(cc1OC)C(=O)C(CC1(F)CCN(CCc3ccccc3F)CC1)C2 (centres unmarked) [DC111, 2-((4-fluoro-1-(2-fluorophenethyl)piperidin-4-yl)methyl)-5,6-dimethoxy-2,3-dihydro-1H-inden-1-one] | 71.58% |  |  | 92.44% | 1.96 nM
